Ten compounds from ChEMBL document CHEMBL1201862, “PubChem BioAssay data set” (2004) can be followed below.

Some test systems named below: HCT-15; MCF7; CAKI-1; HCT-116; DU-145; HCC 2998; A549; NCI-H226; NCI-H522; OVCAR-8; SK-MEL-5; ACHN; SNB-19; NCI-H23; OVCAR-5; UACC-62; T47D; SW-620; SNB-75; BT-549.
What all share (assay): inhibition of tumour cell growth, NCI panel, 48 h

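Grown in 96-well plates, cells were treated for 48 hours with each compound at five concentrations. Insufficient inhibition: endpoint recorded as highest concentration tested. At the GI50, growth is halved.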 Active and inactive are the calls of the source. Rule as the data show it: active = GI50 up to about 1.1 µM and inactive = higher.

Take `CC1(C)CCC2=C(O1)/C(=N\Nc1ccc(S(N)(=O)=O)cc1)c1ccccc1C2=O`: the GI50 with HCT-15 was 19.2 µM; in the assay with MCF7, 13.5 µM (inactive); in the assay with CAKI-1, 14.8 µM (inactive); with HCT-116, 11.6 µM (inactive); in the assay on DU-145, 12.5 µM (inactive); in the assay on HCC 2998, 5.25 µM (inactive). The GI50 in the assay on A549 is 14.6 µM (inactive); with NCI-H226, 4.99 µM (inactive); in the assay on NCI-H522 it was 12.1 µM (inactive); in the assay on OVCAR-8, 10.6 µM (inactive); in the assay on SK-MEL-5, 1.81 µM (inactive); in the assay with ACHN, 19.8 µM (inactive). In addition, the GI50 in the assay with SNB-19 is 16.2 µM (inactive); in the assay with NCI-H23 it was 6.55 µM (inactive); in the assay with OVCAR-5, 18.1 µM (inactive); in the assay with UACC-62, 18.2 µM (inactive); in the assay on T47D, 15.6 µM (inactive); with SW-620, 20.7 µM (inactive). The GI50 is 4.38 µM (inactive) with SNB-75 and 13.1 µM (inactive) with BT-549.

For the compound `C/C=C(\C)c1cc(=O)c2c(C)cc3c(c2o1)C(=O)c1c(O)c(C2CC(C)(N(C)C)C(OC(C)=O)C(C)O2)cc(C2CC(N(C)C)C(O)C(C)O2)c1C3=O` (stereo not given), the GI50 is 1.27 µM in the assay with HCT-15; 0.157 µM (active) in the assay on MCF7; 0.265 µM (active) in the assay with CAKI-1; 0.185 µM (active) in the assay on HCT-116; 0.258 µM (active) with DU-145; 0.0589 µM (active) in the assay with HCC 2998. Moreover, the GI50 in the assay with A549 is 0.41 µM (active); with NCI-H226, 1.31 µM (inactive); in the assay on NCI-H522, 0.172 µM (active); in the assay on OVCAR-8 it was 0.542 µM (active); with SK-MEL-5, 0.625 µM (active); in the assay on ACHN, 0.155 µM (active). Moreover, the GI50 is 1.52 µM (inactive) in the assay with SNB-19; 0.971 µM (active) in the assay with NCI-H23; 1.25 µM (inactive) in the assay on OVCAR-5; 1.12 µM (inactive) in the assay with UACC-62; 1.53 µM (inactive) in the assay on T47D; 0.532 µM (active) in the assay with SW-620. Further, the GI50 in the assay with SNB-75 was 1.64 µM (inactive); with BT-549 it was 1.07 µM (active).

`Cc1cn([C@H]2C=C[C@@H](CO)O2)c(=O)[nH]c1=O` [STAVUDINE]: the GI50 is greater than 1000 µM in the assay on HCT-15; 617 µM (inactive) with MCF7; 307 µM (inactive) in the assay on CAKI-1; > 1000 µM (inactive) with HCT-116; > 1000 µM (inactive) with DU-145; > 1000 µM (inactive) with HCC 2998. Further, the GI50 in the assay on A549 is > 1000 µM (inactive); with NCI-H226, > 1000 µM (inactive); in the assay on NCI-H522 it was 350 µM (inactive); in the assay on OVCAR-8, > 1000 µM (inactive); in the assay on SK-MEL-5 it was > 1000 µM (inactive); in the assay on ACHN it was > 1000 µM (inactive). Also, the GI50 in the assay with SNB-19 was > 1000 µM (inactive); with NCI-H23, 776 µM (inactive); in the assay on OVCAR-5, > 1000 µM (inactive); with UACC-62, 902 µM (inactive); in the assay on T47D, 473 µM (inactive); in the assay with SW-620, 418 µM (inactive). Also, the GI50 is 796 µM (inactive) in the assay on SNB-75 and 327 µM (inactive) with BT-549.

As to `Clc1cc2ncn(C3CCCO3)c2cc1Cl` (stereo not given), the GI50 is greater than 100 µM in the assay on HCT-15; > 100 µM (inactive) in the assay on MCF7; 58.1 µM (inactive) with CAKI-1; 78.5 µM (inactive) with HCT-116; > 100 µM (inactive) in the assay on DU-145; 62.8 µM (inactive) in the assay with HCC 2998. The GI50 is 75.9 µM (inactive) in the assay on A549; 54.1 µM (inactive) with NCI-H226; 24.5 µM (inactive) in the assay with NCI-H522; 77.8 µM (inactive) in the assay on OVCAR-8; 43.3 µM (inactive) with SK-MEL-5; 98.9 µM (inactive) with ACHN. The GI50 in the assay on SNB-19 was > 100 µM (inactive); in the assay on NCI-H23 it was > 100 µM (inactive); in the assay with OVCAR-5, > 100 µM (inactive); with UACC-62, 40.1 µM (inactive); with T47D it was 66.2 µM (inactive); with SW-620, 98.2 µM (inactive). The values for the GI50 with SNB-75 and in the assay on BT-549 were 26.4 µM (inactive) and 19.5 µM (inactive), respectively.

Consider `COC(=O)c1ccc2c(O)c(O)ccc2c1`, for which the GI50 was 13.6 µM in the assay with HCT-15; 18.5 µM (inactive) in the assay on MCF7; 25.1 µM (inactive) in the assay with CAKI-1; 16.7 µM (inactive) with HCT-116; 16.4 µM (inactive) in the assay with DU-145; 15.1 µM (inactive) in the assay on HCC 2998. Moreover, the GI50 in the assay with A549 was 22.2 µM (inactive); in the assay with NCI-H226, 23.1 µM (inactive); in the assay on NCI-H522, 15.2 µM (inactive); in the assay with OVCAR-8 it was 16.1 µM (inactive); with SK-MEL-5, 4.45 µM (inactive); with ACHN, 17.1 µM (inactive). Besides, the GI50 is 14.4 µM (inactive) in the assay on SNB-19; 5.28 µM (inactive) with NCI-H23; 19.2 µM (inactive) in the assay with OVCAR-5; 15.9 µM (inactive) in the assay on UACC-62; 19.5 µM (inactive) in the assay on T47D; 12.1 µM (inactive) with SW-620. For the same compound, the results for the GI50 with SNB-75 and with BT-549 were 12.8 µM (inactive) and 12.5 µM (inactive), respectively.

For the compound `CC(=O)N(C)c1cc(NCc2ccccc2)ccc1OCc1ccccc1`, the GI50 in the assay on HCT-15 was 19.1 µM; with MCF7 it was 17.9 µM (inactive); in the assay on CAKI-1 it was 17.7 µM (inactive); in the assay on HCT-116 it was 31.8 µM (inactive); in the assay with DU-145 it was 17.1 µM (inactive); in the assay on HCC 2998, 18.8 µM (inactive). Also, the GI50 in the assay on A549 is 18.3 µM (inactive); in the assay on NCI-H226 it was 18.4 µM (inactive); in the assay with NCI-H522, 17.9 µM (inactive); with OVCAR-8 it was 17.3 µM (inactive); in the assay on SK-MEL-5, 18.3 µM (inactive); in the assay on ACHN, 17.3 µM (inactive). The GI50 in the assay with SNB-19 is 17.9 µM (inactive); with NCI-H23, 24.4 µM (inactive); in the assay on OVCAR-5, 19.3 µM (inactive); with UACC-62 it was 16.4 µM (inactive); in the assay with T47D, 36.6 µM (inactive); in the assay on SW-620, 24.9 µM (inactive). Moreover, the results for the GI50 in the assay on SNB-75 and in the assay with BT-549 were 22.2 µM (inactive) and 20.6 µM (inactive), respectively.

For `CSc1c(C#N)c(O)nc(N)c1C(=O)Nc1ccc(Cl)cc1`, the GI50 is 11.5 µM with HCT-15; 8.63 µM (inactive) with MCF7; 12.6 µM (inactive) with CAKI-1; 5.45 µM (inactive) with HCT-116; 17.5 µM (inactive) with DU-145; 11.5 µM (inactive) in the assay on HCC 2998. The GI50 is 13.4 µM (inactive) in the assay on A549; 28 µM (inactive) with NCI-H226; 14.1 µM (inactive) in the assay with NCI-H522; 19.1 µM (inactive) in the assay on OVCAR-8; 10.4 µM (inactive) with SK-MEL-5; 3.18 µM (inactive) with ACHN. Also, the GI50 in the assay on SNB-19 was 31.8 µM (inactive); with NCI-H23, 16.8 µM (inactive); in the assay with OVCAR-5, 33 µM (inactive); in the assay with UACC-62, 0.853 µM (active); in the assay with T47D it was 8.38 µM (inactive); in the assay with SW-620 it was 5.65 µM (inactive). Moreover, the GI50 in the assay with SNB-75 was 37.8 µM (inactive); in the assay on BT-549, 24.5 µM (inactive).

As to `CCc1c(CN)c(CC)c(CNC2=NCCN2)c(CC)c1CNC1=NCCN1`, the GI50 in the assay with HCT-15 was greater than 100 µM; in the assay on MCF7, > 100 µM (inactive); in the assay on CAKI-1 it was > 100 µM (inactive); in the assay on HCT-116 it was > 100 µM (inactive); with DU-145, > 100 µM (inactive); in the assay on HCC 2998, > 100 µM (inactive). The GI50 with A549, in the assay on NCI-H226, with NCI-H522, in the assay with OVCAR-8, in the assay on SK-MEL-5 and with ACHN was > 100 µM (inactive) each time. Further, the GI50 with SNB-19, with NCI-H23, in the assay on OVCAR-5, in the assay on UACC-62, in the assay on T47D and in the assay on SW-620 was > 100 µM (inactive) throughout. The GI50 with SNB-75 and in the assay with BT-549 was > 100 µM (inactive) in each case.

On to `CC1(C)CCCC2CC2CCC(C)(C)C1=O` (stereo not given), for which the GI50 was 71.9 µM in the assay on HCT-15; 18.3 µM (inactive) in the assay with MCF7; > 100 µM (inactive) in the assay on CAKI-1; 78.2 µM (inactive) with HCT-116; > 100 µM (inactive) with DU-145; 0.242 µM (active) with HCC 2998. For the same compound, the GI50 with A549 was 42.4 µM (inactive); in the assay with NCI-H226, 43.8 µM (inactive); in the assay on NCI-H522, 37.5 µM (inactive); in the assay with OVCAR-8, 82.8 µM (inactive); with SK-MEL-5, 42.9 µM (inactive); with ACHN, > 100 µM (inactive). Also, the GI50 in the assay on SNB-19 is > 100 µM (inactive); with NCI-H23, > 100 µM (inactive); with OVCAR-5, 46.5 µM (inactive); in the assay with UACC-62, > 100 µM (inactive); in the assay with T47D, > 100 µM (inactive); with SW-620, > 100 µM (inactive). Further, the GI50 was 71 µM (inactive) in the assay with SNB-75 and > 100 µM (inactive) in the assay on BT-549.

Consider `CCCCCCCCCCCCCCCCCCNc1nc(=O)n(C2CC(O)C(COP(=O)(O)OCC(COP(=O)(O)OC3C(CO)OC(n4ccc(N)nc4=O)C3O)OCCCCCCCCCCCCCCCCCC)O2)cc1F` (stereo not given), for which the GI50 with HCT-15 was 34 µM; in the assay with MCF7 it was 8.71 µM (inactive); in the assay on CAKI-1 it was 46.3 µM (inactive); with HCT-116, 27.5 µM (inactive); with DU-145, 34.8 µM (inactive); in the assay on HCC 2998 it was 14.1 µM (inactive). The GI50 was 14.5 µM (inactive) with A549; > 100 µM (inactive) in the assay with NCI-H226; 11.9 µM (inactive) with NCI-H522; 18.6 µM (inactive) in the assay with OVCAR-8; > 100 µM (inactive) in the assay on SK-MEL-5; 23.3 µM (inactive) with ACHN. Also, the GI50 was 14.9 µM (inactive) in the assay with SNB-19; 32 µM (inactive) with NCI-H23; 67.1 µM (inactive) in the assay on OVCAR-5; > 100 µM (inactive) in the assay with UACC-62; 80.9 µM (inactive) in the assay with T47D; > 100 µM (inactive) in the assay with SW-620. The figures for the GI50 in the assay with SNB-75 and in the assay on BT-549 were 80.5 µM (inactive) and 56.4 µM (inactive), respectively.
